The EC50 is the concentration at which the effect is half-maximal. For orientation: half-life means how long it takes for the measured level to halve. What is called Ki is the equilibrium dissociation constant of an inhibitor or competing ligand from its target. The IC50 is the concentration needed to halve the response being measured. A lower IC50 goes with inhibition by little substance. In general, ED50 refers to the midpoint of the dose-response relation. A lower ED50 goes with greater potency.

We go through twelve molecules from ChEMBL document CHEMBL4396923, “Applications of amide isosteres in medicinal chemistry” (Bioorg Med Chem Lett, 2019).

SMILES strings stand for the structures. Residues, ends and D or L forms follow the SMILES beside them.

For series [1], the target named is Delta-type opioid receptor (Homo sapiens, UniProt P41143).
Chain of Delta-type opioid receptor (P41143 whole entry): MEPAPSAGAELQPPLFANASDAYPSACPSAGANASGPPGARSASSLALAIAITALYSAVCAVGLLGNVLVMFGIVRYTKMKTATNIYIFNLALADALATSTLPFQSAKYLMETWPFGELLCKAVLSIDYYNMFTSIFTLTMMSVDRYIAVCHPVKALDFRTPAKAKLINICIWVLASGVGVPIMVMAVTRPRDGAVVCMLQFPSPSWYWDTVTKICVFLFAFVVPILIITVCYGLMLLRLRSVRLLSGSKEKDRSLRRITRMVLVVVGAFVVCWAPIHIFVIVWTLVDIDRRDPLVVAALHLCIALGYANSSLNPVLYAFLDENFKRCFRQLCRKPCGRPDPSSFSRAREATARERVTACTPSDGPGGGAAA
Description: Agonist activity at delta opioid receptor (unknown origin) expressed in CHO cells
Series [2] can be described thus: Half life in human serum. Type of series: ADME, cell-free.
In a further series the target is Beta-secretase 1 (Homo sapiens, UniProt P56817). Briefly: Inhibition of BACE-1 (unknown origin).
Chain of Beta-secretase 1 (P56817 whole entry): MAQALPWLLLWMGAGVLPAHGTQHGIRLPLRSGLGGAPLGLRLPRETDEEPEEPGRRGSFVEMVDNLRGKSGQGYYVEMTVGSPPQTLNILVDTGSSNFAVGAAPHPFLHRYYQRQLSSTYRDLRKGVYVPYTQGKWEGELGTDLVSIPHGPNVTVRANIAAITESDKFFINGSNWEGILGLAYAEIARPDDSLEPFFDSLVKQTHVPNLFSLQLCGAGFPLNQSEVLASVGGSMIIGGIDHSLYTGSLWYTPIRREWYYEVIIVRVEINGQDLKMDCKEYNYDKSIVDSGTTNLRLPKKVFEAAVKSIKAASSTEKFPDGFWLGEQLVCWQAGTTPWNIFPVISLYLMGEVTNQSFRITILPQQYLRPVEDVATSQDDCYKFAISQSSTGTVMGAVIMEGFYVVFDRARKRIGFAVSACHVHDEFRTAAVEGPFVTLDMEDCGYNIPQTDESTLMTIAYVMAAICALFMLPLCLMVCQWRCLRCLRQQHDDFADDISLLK
The next series concerns Hamster. Briefly: Protection against HLE-induced acute lung damage in hamster. In kind it is functional. Conditions: Cricetinae.
For series [3], the target named is angiotensin-converting enzyme (Homo sapiens, UniProt P12821). The experiment in a line: Drug metabolism assessed as angiotensin converting enzyme (unknown origin)-mediated Gly3-Phe4 cleavage by measuring half life. In kind it is ADME.
Chain of angiotensin-converting enzyme (P12821 whole entry): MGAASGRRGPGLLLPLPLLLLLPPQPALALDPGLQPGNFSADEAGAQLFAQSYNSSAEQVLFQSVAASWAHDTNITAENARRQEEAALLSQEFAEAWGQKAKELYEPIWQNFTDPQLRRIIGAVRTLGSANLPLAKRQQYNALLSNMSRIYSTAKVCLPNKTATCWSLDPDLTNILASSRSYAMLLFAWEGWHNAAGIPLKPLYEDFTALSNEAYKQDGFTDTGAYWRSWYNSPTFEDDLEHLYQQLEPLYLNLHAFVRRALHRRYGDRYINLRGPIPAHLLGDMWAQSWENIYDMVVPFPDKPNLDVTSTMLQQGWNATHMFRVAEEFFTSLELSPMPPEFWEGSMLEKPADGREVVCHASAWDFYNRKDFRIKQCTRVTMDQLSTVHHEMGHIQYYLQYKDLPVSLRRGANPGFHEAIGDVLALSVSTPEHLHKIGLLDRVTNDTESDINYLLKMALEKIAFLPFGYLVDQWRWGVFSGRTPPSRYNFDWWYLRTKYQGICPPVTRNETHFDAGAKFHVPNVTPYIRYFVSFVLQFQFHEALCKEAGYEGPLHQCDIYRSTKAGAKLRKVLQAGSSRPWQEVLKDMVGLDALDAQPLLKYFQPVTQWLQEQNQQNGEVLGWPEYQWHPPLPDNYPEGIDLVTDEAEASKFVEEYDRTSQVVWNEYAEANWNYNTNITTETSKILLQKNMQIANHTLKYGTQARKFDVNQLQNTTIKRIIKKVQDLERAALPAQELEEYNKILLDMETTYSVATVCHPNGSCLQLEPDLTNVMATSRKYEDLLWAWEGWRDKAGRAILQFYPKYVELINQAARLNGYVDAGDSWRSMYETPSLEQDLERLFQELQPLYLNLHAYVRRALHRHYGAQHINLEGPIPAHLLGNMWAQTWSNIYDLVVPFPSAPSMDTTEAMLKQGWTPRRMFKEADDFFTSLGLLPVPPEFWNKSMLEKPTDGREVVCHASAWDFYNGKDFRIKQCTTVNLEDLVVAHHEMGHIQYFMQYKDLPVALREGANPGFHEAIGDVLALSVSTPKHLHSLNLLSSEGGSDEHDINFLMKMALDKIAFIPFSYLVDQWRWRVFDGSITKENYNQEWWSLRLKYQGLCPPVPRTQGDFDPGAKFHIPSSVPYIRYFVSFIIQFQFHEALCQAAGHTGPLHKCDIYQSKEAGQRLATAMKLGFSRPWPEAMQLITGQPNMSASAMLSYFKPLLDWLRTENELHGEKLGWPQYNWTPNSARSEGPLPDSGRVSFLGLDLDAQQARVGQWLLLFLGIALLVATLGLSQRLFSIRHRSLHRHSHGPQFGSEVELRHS
Series [4] addresses D(2) dopamine receptor (Homo sapiens) (UniProt P14416). The experiment in a line: Agonist activity at human D2 receptor expressed in NIH/3T3 cells co-expressing beta-galactosidase assessed as increase in beta-galactosidase activity at 10 uM incubated for 5 days by spectrophotometry relative to control. In kind it is cell-based.
In a further series the target is Mu-type opioid receptor (Homo sapiens, UniProt P35372). Briefly: Agonist activity at mu opioid receptor (unknown origin) expressed in CHO cells. Type of series: cell-based.
Chain of Mu-type opioid receptor (P35372 whole entry): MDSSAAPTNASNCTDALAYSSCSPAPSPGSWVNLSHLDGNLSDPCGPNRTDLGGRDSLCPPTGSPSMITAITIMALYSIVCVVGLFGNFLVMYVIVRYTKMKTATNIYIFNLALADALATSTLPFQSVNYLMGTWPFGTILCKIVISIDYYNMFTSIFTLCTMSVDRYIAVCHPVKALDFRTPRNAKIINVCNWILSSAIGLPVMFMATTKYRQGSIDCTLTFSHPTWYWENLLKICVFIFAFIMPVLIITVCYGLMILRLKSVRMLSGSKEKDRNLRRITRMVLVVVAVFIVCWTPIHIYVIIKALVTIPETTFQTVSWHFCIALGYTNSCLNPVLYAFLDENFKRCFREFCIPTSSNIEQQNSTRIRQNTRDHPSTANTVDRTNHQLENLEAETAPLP
Series [5] addresses Kappa-type opioid receptor (Homo sapiens, UniProt P41145). Briefly: Agonist activity at kappa opioid receptor (unknown origin) expressed in CHO cells. In kind it is cell-based.
Series [6] in a line: Stability in rat plasma assessed as parent compound remaining at 4 hrs. Conditions: read-out: Stability. Type of series: ADME, cell-free.
Series [7] in a line: Stability in human plasma assessed as parent compound remaining at 4 hrs. In kind it is ADME, cell-free. The conditions noted are these: read-out: Stability.

Chain of Kappa-type opioid receptor (P41145 whole entry): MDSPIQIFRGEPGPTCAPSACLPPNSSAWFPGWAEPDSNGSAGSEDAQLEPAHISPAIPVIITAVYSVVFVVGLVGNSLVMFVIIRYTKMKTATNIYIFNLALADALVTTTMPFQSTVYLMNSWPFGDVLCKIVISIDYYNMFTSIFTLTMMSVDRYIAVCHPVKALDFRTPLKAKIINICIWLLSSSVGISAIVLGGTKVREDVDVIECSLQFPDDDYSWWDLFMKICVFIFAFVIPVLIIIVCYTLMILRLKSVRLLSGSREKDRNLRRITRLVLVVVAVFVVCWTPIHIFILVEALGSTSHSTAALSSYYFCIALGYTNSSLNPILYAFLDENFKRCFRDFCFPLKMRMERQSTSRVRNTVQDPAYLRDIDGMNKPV
Chain of D(2) dopamine receptor (Homo sapiens) (P14416 whole entry): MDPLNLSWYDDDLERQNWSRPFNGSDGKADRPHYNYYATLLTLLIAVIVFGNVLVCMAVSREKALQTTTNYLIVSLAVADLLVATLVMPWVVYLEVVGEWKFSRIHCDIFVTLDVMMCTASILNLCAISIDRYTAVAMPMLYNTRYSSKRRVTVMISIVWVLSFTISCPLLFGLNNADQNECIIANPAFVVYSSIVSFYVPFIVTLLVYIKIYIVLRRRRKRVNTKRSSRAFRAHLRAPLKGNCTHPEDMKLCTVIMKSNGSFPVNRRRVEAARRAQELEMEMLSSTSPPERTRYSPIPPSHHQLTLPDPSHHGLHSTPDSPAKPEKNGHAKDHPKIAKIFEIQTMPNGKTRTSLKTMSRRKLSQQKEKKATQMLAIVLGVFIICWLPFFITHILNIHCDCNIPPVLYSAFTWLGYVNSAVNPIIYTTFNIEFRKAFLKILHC

Take `CC(C)C[C@H](NC(=O)[C@H](Cc1ccccc1)NC(=O)CNC(=O)CNC([C@@H](N)Cc1ccc(O)cc1)C(F)(F)F)C(=O)O` (mixture of isomers): the EC50 in [1] was more than 10 nM.

`CC(C)C[C@H](NC1([C@H](Cc2ccccc2)NC(=O)CNC(=O)CNC(=O)[C@@H](N)Cc2ccc(O)cc2)COC1)C(=O)O.O=C(O)C(F)(F)F` had a half-life in series [2] of 0.433 h. In series [1], this molecule registered an inhibition constant Ki of 43 nM.

`CC(C)C[C@H](NC(=O)[C@H](Cc1ccccc1)NC(=O)CNC(=O)CNC1([C@@H](N)Cc2ccc(O)cc2)COC1)C(=O)O.O=C(O)C(F)(F)F`: the half-life in series [2] is 3.2 h.

Turning to `COC(=O)[C@@H]1C[C@H](NC(=O)[C@@H](NC(=O)C[C@H](O)[C@H](Cc2cc(F)cc(F)c2)NC(=O)C(O)c2ccccc2-c2ccccc2)C(C)C)C[C@H](C(=O)OC)C1` (stereo partly drawn), the 50% inhibitory concentration (IC50) at Beta-secretase 1 came to 120 nM.

`CC(C)C(NC(=O)Cn1c(-c2ccc(F)cc2)ncc(N)c1=O)C(=O)C(F)(F)F` (stereo not drawn) yielded an ED50 in the series on Hamster of 7.5 mg/kg.

With `CC(C)C[C@H](NC(=O)[C@@H](/C=C/CNC(=O)CNC(=O)[C@@H](N)Cc1ccc(O)cc1)Cc1ccccc1)C(=O)O`, the response in series [1] was half-maximal at 587 nM (EC50).

Turning to `CC(C)C[C@H](NC(=O)[C@H](Cc1ccccc1)NC(=O)CNC(=O)CNC(=O)[C@@H](N)Cc1ccc(O)cc1)C(=O)O` [ENKEPHALIN], the half-life in series [3] turned out to be 2.17 h.

Consider `CC(C)C[C@H](NC(=O)[C@H](Cc1ccccc1)NC(=O)CNC1(CNC(=O)[C@@H](N)Cc2ccc(O)cc2)COC1)C(=O)O.O=C(O)C(F)(F)F`, for which the half-life in [2] was 18 h.

For `CC(C)C[C@H](NC(=O)[C@@H]1CCCN1)C(=O)NCC(N)=O` (H-Pro-Leu-Gly-NH2), the Activity in series [4] stood at 146%.

`Cc1ccc(C[C@H](N)/C(F)=C/CC(=O)NCC(=O)N[C@@H](Cc2ccccc2)C(=O)N[C@@H](CC(C)C)C(=O)O)cc1`: the values for the EC50 (at Mu-type opioid receptor; in series [5]; in series [1]) were 60 nM, more than 10 nM and 5 nM, respectively. Also, the remaining at 4 h amounted to 76% in series [6] and 68% in series [7].

`CC(C)C[C@H](NC(=O)[C@H](Cc1ccccc1)NC1(CNC(=O)CNC(=O)[C@@H](N)Cc2ccc(O)cc2)COC1)C(=O)O.O=C(O)C(F)(F)F`: the half-life in series [2] amounted to 0.25 h. In series [1], this molecule registered a Ki of 157 nM.

In the case of `CC(C)C[C@H](NC(=O)[C@@H](/C=C(\F)CNC(=O)CNC(=O)[C@@H](N)Cc1ccc(O)cc1)Cc1ccccc1)C(=O)O`, in series [1], the 50% effective concentration (EC50) was determined as 43 nM.
